Data on twelve compounds can be found in PubChem BioAssay (NCI).

Each structure is given as a SMILES string. Several values for one entry are separate records, joined by “and”; a condition that tells them apart may be missing. Identical values can stand only once.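 All cell lines were grown in 96-well plates and treated with compound for 48 hours. At the GI50, growth is halved. TGI denotes the concentration required for complete inhibition of growth.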

Among the test systems are SF-268 CNS; OVCAR-3 ovarian; SN12C renal; IGROV1 ovarian; T-47D breast; OVCAR-8 ovarian; A498 renal; SW-620 colon; K-562 leukemia; SR leukemia.
Holding throughout (experiment): NCI anticancer screen, dose series, 48 h

As to `S=C1Cc2c(-c3ccc(Br)cc3)cc(-c3ccccc3)nc2-c2ccccc2N1`, the TGI came out at 6.19 µM in the assay with SF-268 CNS; 6.93 µM with OVCAR-3 ovarian; 2.97 µM with SN12C renal; 2.94 µM with IGROV1 ovarian; 7.03 µM in the assay on T-47D breast; 3.02 µM with OVCAR-8 ovarian. Besides, the TGI with A498 renal was 3.71 µM; in the assay on SW-620 colon, 9.15 µM; in the assay on K-562 leukemia, > 100 µM.
As to `CC1=C(C(=O)Nc2ccccc2)C(c2ccccc2Cl)C(C(=O)Nc2ccccc2)=C(C)N1`, the TGI turned out to be 50.5 µM in the assay with SF-268 CNS; 52.6 µM in the assay on SR leukemia; 40.5 µM in the assay on OVCAR-3 ovarian; 33 µM with SN12C renal; 65.4 µM in the assay on IGROV1 ovarian; 91.8 µM in the assay on OVCAR-8 ovarian. Also, the TGI in the assay with A498 renal stood at 58.5 µM; in the assay with SW-620 colon, 76.2 µM; with K-562 leukemia it was 93.5 µM.
As to `COc1ccc(C2=Nc3ccccc3SC(C)C2)cc1OC` (stereo unspecified), the TGI in the assay on SF-268 CNS stood at 43.5 µM; in the assay with SR leukemia, 57.4 µM; in the assay with OVCAR-3 ovarian, 30.8 µM; in the assay on SN12C renal, 42 µM; in the assay with IGROV1 ovarian, 29.7 µM; with OVCAR-8 ovarian it was 43.8 µM. In addition, the TGI was 39.8 µM in the assay with A498 renal, 18.6 µM in the assay on SW-620 colon and 56.6 µM in the assay on K-562 leukemia.
As to `CCCCCC(=O)Nc1nc2nc[nH]c2c(=O)[nH]1`, the TGI with SF-268 CNS, in the assay on SR leukemia, with OVCAR-3 ovarian, in the assay on SN12C renal, in the assay on IGROV1 ovarian and in the assay with OVCAR-8 ovarian was > 100 µM throughout. Further, the TGI with A498 renal, in the assay on SW-620 colon and with K-562 leukemia was > 100 µM in each case.
With `CC(=O)OC12C=C(C)C(C(C)C1)C1C(=O)N(CCN3CCCCC3)C(=O)C12` (stereo unspecified), the GI50 in the assay on SF-268 CNS, in the assay with SR leukemia, with SN12C renal, in the assay with IGROV1 ovarian, in the assay with T-47D breast and with OVCAR-8 ovarian was > 50 µM each time. Besides, the GI50 in the assay with A498 renal, in the assay on SW-620 colon and with K-562 leukemia was > 50 µM each time. Moreover, the TGI in the assay on SF-268 CNS, in the assay on SR leukemia, with SN12C renal, in the assay on IGROV1 ovarian, in the assay on T-47D breast and in the assay with OVCAR-8 ovarian was > 50 µM each time. Also, the TGI in the assay on A498 renal, in the assay on SW-620 colon and in the assay on K-562 leukemia was > 50 µM throughout.
In the case of `C#CC1=CC(=O)C(OC)=CC1=O`, the TGI was > 100 µM in the assay on SF-268 CNS; 36.4 µM in the assay with SR leukemia; > 100 µM in the assay with OVCAR-3 ovarian; 31.7 µM in the assay on SN12C renal; 87.5 µM in the assay on T-47D breast; > 100 µM in the assay with A498 renal. The TGI in the assay on SW-620 colon was 40 µM; with K-562 leukemia it was > 100 µM.
Turning to `COC1CC(O)C(OC(=O)c2ccccc2)C(C)O1` (stereo unspecified), the TGI in the assay with SF-268 CNS, in the assay on SR leukemia, with OVCAR-3 ovarian, with SN12C renal, in the assay with IGROV1 ovarian and with OVCAR-8 ovarian was > 100 µM each time. Besides, the TGI in the assay with A498 renal, in the assay on SW-620 colon and with K-562 leukemia was > 100 µM throughout.
In the case of `CS(=O)(=O)c1ccc(Nc2nc(N[C@H]3CCCC[C@H]3N)nc3cc[nH]c(=O)c23)cc1`, the GI50 is 1.33 µM in the assay on SF-268 CNS; 0.68 µM in the assay on SR leukemia; 1.3 µM in the assay on OVCAR-3 ovarian; 2.76 µM in the assay on SN12C renal; 0.891 µM in the assay on T-47D breast; 2.68 µM in the assay on OVCAR-8 ovarian. For the same compound, the GI50 in the assay with A498 renal was 3.31 µM; in the assay on SW-620 colon, 0.627 µM; with K-562 leukemia it was 1.14 µM. Also, the TGI with SF-268 CNS is 4.26 µM; with SR leukemia, 6.03 µM; in the assay with OVCAR-3 ovarian, 4.67 µM; in the assay with SN12C renal, > 100 µM; in the assay with T-47D breast, 77.6 µM; in the assay with OVCAR-8 ovarian, 20.3 µM. The TGI with A498 renal is 12.4 µM; in the assay with SW-620 colon, 8.6 µM; in the assay with K-562 leukemia it was > 100 µM.
In the case of `[N-]=[N+]=NCCCn1c2c(c3ccc([N+](=O)[O-])cc3c1=O)C(=O)c1cc(Br)ccc1-2`, the GI50 in the assay on SF-268 CNS, in the assay with OVCAR-3 ovarian, with SN12C renal, in the assay on IGROV1 ovarian, with T-47D breast and in the assay on OVCAR-8 ovarian was > 100 µM each time. For the same compound, in the assay on K-562 leukemia, the GI50 is > 100 µM. Also, the TGI in the assay on SF-268 CNS, in the assay on OVCAR-3 ovarian, with SN12C renal, in the assay on IGROV1 ovarian, with T-47D breast and in the assay with OVCAR-8 ovarian was > 100 µM in each case. Also, the TGI in the assay with K-562 leukemia is > 100 µM.
On to `Cc1cccc(C(=O)O)c1C(=O)c1cccc2ccccc12`, for which the TGI with SF-268 CNS, in the assay on SR leukemia, in the assay on OVCAR-3 ovarian, in the assay on SN12C renal, in the assay on IGROV1 ovarian and in the assay on OVCAR-8 ovarian was > 100 µM each time. Also, the TGI with A498 renal, in the assay with SW-620 colon and in the assay with K-562 leukemia was > 100 µM each time.
Consider `CCCCCC(O)C(O)CCC[C@H](O)[C@H]1CC[C@H]([C@H]2CC[C@H]([C@H](O)CCCCCCCCCCCCC3=C[C@H](C)OC3=O)O2)O1` (stereo partly specified), for which the GI50 in the assay on SF-268 CNS is 12.4 µM; in the assay with OVCAR-3 ovarian, 12.3 µM; in the assay with SN12C renal it was 13.6 µM; in the assay with IGROV1 ovarian, 7.46 µM; in the assay on T-47D breast, 2.12 µM; in the assay with OVCAR-8 ovarian it was 7.24 µM. For the same compound, the GI50 with SW-620 colon was 7.51 µM. Moreover, the TGI in the assay on SF-268 CNS is 40.8 µM; in the assay with OVCAR-3 ovarian it was 8.38 µM and 31.6 µM; with SN12C renal, 66.6 µM; in the assay with IGROV1 ovarian, 29.4 µM; in the assay on T-47D breast it was 25.6 µM; with OVCAR-8 ovarian it was > 100 µM. For the same compound, the TGI was > 100 µM in the assay with SW-620 colon and 6.4 µM with K-562 leukemia.
Turning to `N#Cc1ccccc1NC(=O)C(=O)C1NC(=S)NC1=O` (stereo unspecified), the TGI in the assay on SF-268 CNS, in the assay with SR leukemia, in the assay on OVCAR-3 ovarian, in the assay on SN12C renal, with IGROV1 ovarian and in the assay with OVCAR-8 ovarian was > 100 µM in each case. In addition, the TGI in the assay on A498 renal, with SW-620 colon and with K-562 leukemia was > 100 µM in each case.
